Results from PubChem BioAssay (NCI).
“And” between values parts separate entries of the source, which are not always exact repeats. Identical values can stand only once.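 Where inhibition never reached the appropriate level, the endpoint shown equals the highest concentration tested. Otherwise, values were interpolated linearly from a five-concentration, 48-hour dose response in 96-well plates. The concentration for 50% growth inhibition is given as GI50. The concentration for full growth arrest is given as TGI.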

Key:
Assay in all cases: NCI anticancer screen, dose series, 48 h
NCI-H522 lung = test system: NCI-H522 lung
OVCAR-3 ovarian = test system: OVCAR-3 ovarian
HCT-116 colon = test system: HCT-116 colon
T-47D breast = test system: T-47D breast
OVCAR-8 ovarian = test system: OVCAR-8 ovarian
SK-OV-3 ovarian = test system: SK-OV-3 ovarian
A498 renal = test system: A498 renal
COLO 205 colon = test system: COLO 205 colon
CAKI-1 renal = test system: CAKI-1 renal
SN12C renal = test system: SN12C renal

SMILES	TGI (NCI-H522 lung)	TGI (OVCAR-3 ovarian)	TGI (HCT-116 colon)	TGI (T-47D breast) [µM]	TGI (OVCAR-8 ovarian)	TGI (SK-OV-3 ovarian)	TGI (A498 renal) [µM]	TGI (COLO 205 colon)	TGI (CAKI-1 renal) [µM]	TGI (SN12C renal)	GI50 (NCI-H522 lung) [µM]	GI50 (OVCAR-3 ovarian) [µM]	GI50 (HCT-116 colon) [µM]	GI50 (T-47D breast) [µM]	GI50 (OVCAR-8 ovarian) [µM]	GI50 (SK-OV-3 ovarian) [µM]	GI50 (A498 renal) [µM]	GI50 (COLO 205 colon) [µM]	GI50 (CAKI-1 renal) [µM]	GI50 (SN12C renal) [µM]
Cc1ncc([N+](=O)[O-])n1CCNS(=O)(=O)CCCn1ccnc1[N+](=O)[O-]	> 100 µM	> 100 µM	> 100 µM	> 100	> 100 µM	> 100 µM	> 100	> 100 µM	> 100	> 100 µM	–	–	–	–	–	–	–	–	–	–
O=[N+]([O-])c1ccc(-c2nc(N(CCO)CCO)c3ccccc3n2)o1	0.217 µM	1.43 µM	1.24 µM	5.02	2.88 µM	0.401 µM	0.255	0.264 µM	3.33	7.72 µM	0.0713	0.235	0.232	0.319	0.262	0.156	0.119	0.118	0.282	0.292
c1cc2c(cc1C(N1CCNCC1)N1CCNCC1)OCO2	> 100 µM	> 100 µM	> 100 µM	> 100	> 100 µM	> 100 µM	> 100	> 100 µM	> 100	> 100 µM	–	–	–	–	–	–	–	–	–	–
C=C1CC[C@@]2(C#N)[C@H]3[C@H](CC[C@@H]2C)[C@@H](C)C[C@@H](CC(C)(C)C#N)[C@H]13	57.9 µM	28.8 µM	11.2 µM	10.9	33.7 µM	77.9 µM	58.1	14.4 µM	> 100	64.8 µM	10.8	2.88	0.229	2.24	0.785	6.6	6.6	1.61	1.73	5.71
O=C(/C=C/C=C/c1ccccc1)CCc1ccccc1	> 100 µM	> 100 µM	> 100 µM	> 100	> 100 µM	> 100 µM	> 100	> 100 µM	> 100	> 100 µM	–	–	–	–	–	–	–	–	–	–
Cc1ccccc1CN1CC2=C(CCN(Cc3ccccc3)C2=O)N2CCN=C12	> 100 µM	> 87 µM	> 100 µM	> 84.2	> 100 µM	> 52.6 µM	> 100	> 100 µM	> 100	> 100 µM	–	–	–	–	–	–	–	–	–	–
C=C1C(=O)O[C@@H]2C1C[C@@H](O)/C(C)=C/C/C=C(\C)CCC[C@H](C)[C@H]2OC(C)=O (stereo partly specified)	79.9 µM	42.7 µM	27 µM	> 100	> 100 µM	> 100 µM	> 100	> 100 µM	> 100	66.3 µM	22.7	21.4	14.1	48.4	35.5	69.3	54	40.4	32.8	27.2
COc1ccc(C2=NN(C(=O)COc3ccc(Cl)cc3)C(O)(c3cc(F)c(Cl)cc3Cl)C2)cc1OC (stereo unspecified)	2.37 µM	1.46 µM	2.58 µM	3.29	14.1 µM	30.6 µM	26.2	3.41 µM	3.6	13.3 µM	–	0.214	1.23	1.51	5.7	16.1	13.1	1.63	1.68	3.65
C/C=C(\C)C(=O)N[C@H]1[C@@H](OC(C)=O)C[C@]2(C)C3CC[C@@]4(C)C(CC[C@@H]4C(C)N(C)C)C3CCC2[C@H]1O (stereo partly specified)	15.3 µM	19.1 µM	4.34 µM	10.3	43.4 µM	22.5 µM	20	5.91 µM	14	19.6 µM	4.99	5.56	1.88	2.06	11.2	7.95	2.73	2.15	3.2	5.55
CCOC(=O)Cc1csc(/N=C2\NC(=O)/C(=C3\C(=O)N(C)c4ccccc43)S2)n1	93.3 µM	72.7 µM	60.1 µM	> 100	> 100 µM	> 100 µM	> 100	> 100 µM	67.9	> 100 µM	24.8	28.2	28.1	81.5	65.3	> 100	46.8	48.7	23.5	31
CCCCCNC(=O)[C@@H]1CCCN2C(=O)CC[C@H](NC(=O)[C@H](Cc3ccc(OP(=O)(O)O)cc3)NC(C)=O)C(=O)N12	> 25 µM	> 25 µM	> 25 µM	> 25	> 25 µM	> 25 µM	> 25	> 25 µM	> 25	> 25 µM	> 25	> 25	> 25	> 25	> 25	> 25	> 25	> 25	> 25	> 25
O=C1/C(=C/c2ccc(O)c([N+](=O)[O-])c2)CCC/C1=C\c1ccc(O)c([N+](=O)[O-])c1	22.6 µM and 3.08 µM	17.1 µM and > 100 µM	18.7 µM and > 100 µM	47.5	50 µM and 34.7 µM	50 µM and > 100 µM	13.1	31.9 µM and 40.6 µM	20.4	26.2 µM and > 100 µM	1.49	2.54	26.8	–	16	22.2	–	20.8	–	46.2
N=C1c2nc3n(c2C(=O)c2nc4n(c21)CCCC4)CCCC3	26.1 µM	> 100 µM	> 100 µM	> 100	> 100 µM	> 100 µM	8.16	3.39 µM	> 83.2	3.12 µM	4.17	27.1	19.8	11.7	32.8	34.2	0.727	1.83	19.1	1.58
[N-]=[N+]=C(C(=O)OCC#CCOC(=O)C(=[N+]=[N-])S(=O)(=O)c1ccccc1)S(=O)(=O)c1ccccc1	> 10 µM	> 10 µM	> 10 µM	> 10	> 10 µM	> 10 µM	> 10	> 10 µM	> 10	> 10 µM	–	–	–	–	–	–	–	–	–	–
O=C(c1cc(F)c(Cl)cc1Cl)N1N=C(c2ccccc2)CC1(O)c1ccccc1 (stereo unspecified)	36.9 µM	59.5 µM	21.7 µM	53.7	72.4 µM	80.1 µM	24	31.4 µM	> 100	40.5 µM	14.5	18.9	10.1	18.1	25.5	28.4	11.8	17	31.7	18.7
COc1cc(Cl)cc(-c2nn(C(=O)NCCN3CCN(C)CC3)cc2-c2ccncc2)c1	53.6 µM	85.9 µM	31.3 µM	> 100	> 100 µM	28.8 µM	24.7	60.9 µM	25.3	> 100 µM	20.3	23.6	14.8	20.8	2.94	5.44	4.67	9.86	4.35	10.6
OCC(O)C(O)C(O)C1SC(c2ccccc2)=NN1c1ccccc1 (stereo unspecified)	75.4 µM	> 87.6 µM	> 100 µM	> 70.3	> 100 µM	76.9 µM	> 100	> 100 µM	> 100	> 100 µM	–	–	–	–	–	–	–	–	–	–
CCCCCCCCCNCCCCCCCCC	3.08 µM	3.46 µM	3.16 µM	3.59	4.66 µM	3.83 µM	24.5	3.22 µM	3.09	3.25 µM	1.54	1.93	1.77	1.91	2.19	2.04	9.79	1.77	1.49	1.59
